The values that follow come from patent US20150352114A1, “MITOTIC KINESIN Eg5 INHIBITING ANTICANCER AGENTS” (THE CLEVELAND CLINIC FOUNDATION, priority 2014, published 2015).

In assay [1] the test system is glioblastoma stem cells (GSCs). Briefly: Dose response cell viability, CellTiter-Glo ATP-based assay, GSCs. To be noted: Homo sapiens, 0 to 32 nM, 72 hours. An excerpt: (§1) Human tissues were acquired from primary human brain tumor patient specimens in accordance with appropriate approved Institutional Review Board protocols. Tumor grade and available cytogenetic information for each specimen has been previously described. Tumor specimens were maintained through subcutaneous xenografts in the flanks of athymic Nu/Nu or NSG mice. Tumors were dissociated using a papain dissociation system (Worthington Biochemical, Lakewood, N.J.). […]
(§2) The half maximal effective concentration of ispinesib for acutely dissociated and MACS sorted matched GSCs and NSTCs was determined by plating, in triplicate, 1,000 cells per well of a 96 well plate pre-coated with GelTrex in growth-factor free Neuralbasal media. […] Viability was measured at 72 hours using CellTiter-Glo ATP-based assay (Promega, Madison, Wis.) read on a luminometer (Perkin-Elmer, Waltham, Mass.). […] The next day, cells were exposed to 3 nM ispinesib or vehicle (DMSO) and viability was measured daily for 5 days using CellTiter-Glo. Day 0 reading were taken immediately after addition of drug or vehicle. SubG1 for GSCs and NSTCs was determined by flow cytometry for propidium iodide and gated as the events below the 2N G1 peak of the resulting histogram. […] Cells were fixed at Day 0 through Day 4 in 100% cold ethanol and simultaneously processed for flow analysis with 20,000 events analyzed per condition.

For the next assay, the system named is NSTCs. Briefly: Dose response cell viability, CellTiter-Glo ATP-based assay, NSTCs. To be noted: Homo sapiens, 0 to 32 nM, 72 hours.
Description: as §1, §2
Background: In ATP-based viability assays light output follows the ATP content of the culture.

For the next assay, the system named is matched GSCs and NSTCs. Briefly: SubG1 (apoptotic) population by flow cytometry for propidium iodide. The following applies: 3 nM; four days; three xenograft patient specimens. Type of assay: cell-based, human. As to the method: The half maximal effective concentration of ispinesib for acutely dissociated and MACS sorted matched GSCs and NSTCs was determined by plating, in triplicate, 1,000 cells per well of a 96 well plate pre-coated with GelTrex in growth-factor free Neuralbasal media. The next day, cells were exposed to 2-fold increasing concentrations of ispinesib spanning from 0 to 32 nM. Viability was measured at 72 hours using CellTiter-Glo ATP-based assay (Promega, Madison, Wis.) read on a luminometer (Perkin-Elmer, Waltham, Mass.). For long-term viability assays, 500 cells per well were plated in triplicate into 96-well plates as above. The next day, cells were exposed to 3 nM ispinesib or vehicle (DMSO) and viability was measured daily for 5 days using CellTiter-Glo. Day 0 reading were taken immediately after addition of drug or vehicle. SubG1 for GSCs and NSTCs was determined by flow cytometry for propidium iodide and gated as the events below the 2N G1 peak of the resulting histogram. Analysis was done following treatment of 100,000 cells with vehicle or 3 nM ispinesib. Cells were fixed at Day 0 through Day 4 in 100% cold ethanol and simultaneously processed for flow analysis with 20,000 events analyzed per condition.
On the technique in general: A flow cytometer gives signals particle by particle.

The next assay deals with 3691 GBM cells. The assay can be described thus: Subcutaneous flank tumor study, 3691 GBM xenograft. Type of assay: in vivo, mice. As to the method: All animal studies described were approved by the Cleveland Clinic Foundation Institutional Animal Care and Use Committee and conducted in accordance with the NIH Guide for the Care and Use of Laboratory Animals. For subcutaneous tumor studies, 1×10^5 freshly dissociated GBM cells from a xenograft originally derived from a primary GBM patient specimen (3691) were injected into the flanks of 10 six week old female athymic nu/nu mice. Tumors were allowed to reach approximately 0.12 cm^3, at which point animals were randomized into either vehicle control (DMSO) group or ispinesib (10 mg/kg given daily for 7 consecutive days by intraperitoneal injection) (Selleck Chemicals, Houston, Tex.). Tumors were monitored and measured daily using perpendicular diameter measurements for 7 days. Tumor volume was calculated using the ellipsoid formula π/6×larger diameter×(smaller diameter)^2. After the last treatment on Day 7, tumors were removed and weighed then processed for immunofluorescence (as described below). For intracranial implantation studies to evaluate tumor initiation by GSCs, the cells were isolated as described below and pre-exposed to drug or vehicle either in vitro or in vivo. For in vitro pre-exposure studies, GSCs from xenograft 3691 were seeded at single cell density and treated with vehicle or ispinesib (3 nM) for 18 hours (300,000 cells per condition). Drug was then washed off and 2,500 or 25,000 viable GSCs were implanted into the right frontal lobes of male NSG mice (n=10 for vehicle, n=7 for ispinesib). For in vivo pre-exposure studies, subcutaneous tumors were established as described above. When tumors reached ˜0.5 cm^3, mice were randomized into a vehicle (DMSO) or ispinesib (10 mg/kg given daily for 3 consecutive days) group. 4 hours after the final treatment, GSCs were isolated as described below and 1,000 or 10,000 viable GSCs were then intracranially implanted into NSG mice (10 mice per group). Mice were monitored daily for neurological impairment at which time they were sacrificed and brains removed to evaluate for tumor development. […]

A further assay concerns 08-387 GSCs. Briefly: Cytoskeleton Phospho Antibody Array. To be noted: 200 nM; 7 hours. Type of assay: cell-based, human. As to the method:
08-387 GSCs were enriched in G1 as described. Cells were then exposed to vehicle or ispinesib (200 nM) for 7 hours. Following treatment, cells were pelleted and snap frozen in liquid nitrogen before shipping to Full Moon Biosystems for processing to probe a Cytoskeleton Phospho Antibody Array containing 141 highly specific cytoskeleton related antibodies (Sunnyvale, Calif.).

For another assay, the system named is cell lines. To be noted: cited from earlier work.

As a reminder, the EC50 is the concentration needed to bring the measured effect to its halfway point. Read a high EC50 as lower potency in that assay.

`Cc1ccc(C(=O)N(CCCN)[C@@H](c2nc3cc(Cl)ccc3c(=O)n2Cc2ccccc2)C(C)C)cc1` [ispinesib, N-(3-amino-propyl)-n-[R-1-(3-benzyl-7-choloro-4-oxo-3,4-dihydroquinazolin-2-yl)-2-methyl-propyl]-4-methyl-benzamide methanesulfonate]: the EC50 is 1.15 ± 0.35 nM in assay [1] and 1.79 ± 0.22 nM with NSTCs. Further, in the assay with matched GSCs and NSTCs, the “subG1 population (surrogate marker for apoptosis)” value is “higher subG1 fraction over NSTCs”. For the same molecule, in the assay on 3691 GBM cells (10 mg/kg daily intraperitoneal, 7 consecutive days), the tumor volume result is on record as “significantly reduced”. Moreover, in the assay on 3691 GBM cells (10 mg/kg daily intraperitoneal, 7 consecutive days, day 7), the tumor weight entry is given as “significantly reduced”. The “Sox2 positive cells in end stage tumors” value in the assay on 3691 GBM cells (10 mg/kg daily, 7 days) is on record as “no Sox2 positive cells”. Moreover, the “phosphorylation of 141 cytoskeleton proteins” value with 08-387 GSCs is “no significant changes in phosphorylation”. In addition, the “efficacy in cell lines tested” value with cell lines is reported as “nanomolar efficacy”.
